Experimental data from ChEMBL document CHEMBL1201862, “PubChem BioAssay data set” (2004).
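A five-concentration, 48-hour dose response in 96-well plates underlies each endpoint, interpolated linearly between surrounding concentrations. The concentration for 50% growth inhibition is given as GI50.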 Calls of active or inactive are those of the source. No stated cut-off is given here; in the data, active = GI50 up to about 1.1 µM and inactive = higher. *1 amine or outer side, *2 acyl side, *3 side chain or, on linkers, in order; H or OH if unused. Where a SMILES comes first, the peptide text is derived from it. Bridges are numbered along the chain shown (N, C = ends). Roman numbers before positions name the chains, in order. [ ]: non-standard residue; d: D form. Actinocin(1to9) = Cc1c2oc3c(C)ccc(C(=O)[*:2])c3nc-2c(C(=O)[*:1])c(N)c1=O; NMeV = CN[CH](C(=O)O)C(C)C; Sar = CNCC(=O)O

Columns and labels:
Assay in all cases: NCI-60 cell line screen, 48 h
MOLT-4 = test system: MOLT-4
SNB-75 = test system: SNB-75
NCI-H23 = test system: NCI-H23
HL-60 = test system: HL-60
KM12 = test system: KM12
NCI-H460 = test system: NCI-H460
SF-539 = test system: SF-539
HT-29 = test system: HT-29
PC-3 = test system: PC-3
MDA-MB-231 = test system: MDA-MB-231
OVCAR-4 = test system: OVCAR-4
IGROV-1 = test system: IGROV-1
OVCAR-5 = test system: OVCAR-5
ACHN = test system: ACHN
HCT-15 = test system: HCT-15
MDA-MB-435 = test system: MDA-MB-435
A549 = test system: A549
RPMI-8226 = test system: RPMI-8226
OVCAR-3 = test system: OVCAR-3
SF-295 = test system: SF-295

Row | SMILES | GI50 (MOLT-4) | GI50 (SNB-75) | GI50 (NCI-H23) | GI50 (HL-60) | GI50 (KM12) | GI50 (NCI-H460) | GI50 (SF-539) | GI50 (HT-29) | GI50 (PC-3) | GI50 (MDA-MB-231) | GI50 (OVCAR-4) | GI50 (IGROV-1) | GI50 (OVCAR-5) | GI50 (ACHN) | GI50 (HCT-15) [µM] | GI50 (MDA-MB-435) | GI50 (A549) | GI50 (RPMI-8226) | GI50 (OVCAR-3) | GI50 (SF-295)
1 | CN1CCN(Cc2nc3cccc4c3c([n+]2[O-])-c2ccccc2-4)CC1 | 12.4 µM (inactive) | 33 µM (inactive) | 26.8 µM (inactive) | 33.1 µM (inactive) | 27.4 µM (inactive) | 17.8 µM (inactive) | 25.4 µM (inactive) | 12.4 µM (inactive) | 11.4 µM (inactive) | 15.8 µM (inactive) | 25.2 µM (inactive) | 32.5 µM (inactive) | > 34.2 µM (inactive) | 12.2 µM (inactive) | 29 | 15.6 µM (inactive) | 14.8 µM (inactive) | 20.7 µM (inactive) | 37.8 µM (inactive) | 41 µM (inactive)
2 | CCC(=O)C1(N2CCOCC2)CCN(CCCC(=O)c2ccc(F)cc2)CC1 | > 100 µM (inactive) | > 100 µM (inactive) | > 100 µM (inactive) | > 100 µM (inactive) | > 100 µM (inactive) | > 100 µM (inactive) | > 100 µM (inactive) | 39.2 µM (inactive) | > 100 µM (inactive) | > 100 µM (inactive) | > 100 µM (inactive) | > 100 µM (inactive) | > 100 µM (inactive) | > 100 µM (inactive) | > 100 | > 100 µM (inactive) | > 100 µM (inactive) | > 100 µM (inactive) | > 100 µM (inactive) | > 100 µM (inactive)
3 | O=C1NC(NNc2ccccc2)=N/C1=C\c1ccccc1O | 51.6 µM (inactive) | 43.4 µM (inactive) | 39.1 µM (inactive) | 28.8 µM (inactive) | 33.2 µM (inactive) | 45.6 µM (inactive) | 77.6 µM (inactive) | 61 µM (inactive) | 33.6 µM (inactive) | 68.2 µM (inactive) | 50.9 µM (inactive) | 89.1 µM (inactive) | > 100 µM (inactive) | 49.1 µM (inactive) | 44.2 | 71.1 µM (inactive) | 72.6 µM (inactive) | 81.5 µM (inactive) | 96.2 µM (inactive) | 50.2 µM (inactive)
4 | Cc1[nH]c2c(c1Cc1ccccc1)C1=NC=C(O)NN1C=N2 | 29 µM (inactive) | 10.3 µM (inactive) | 53.7 µM (inactive) | > 100 µM (inactive) | > 100 µM (inactive) | 36.4 µM (inactive) | 86.9 µM (inactive) | 80 µM (inactive) | 82.2 µM (inactive) | > 100 µM (inactive) | > 100 µM (inactive) | 10 µM (inactive) | > 100 µM (inactive) | 44.3 µM (inactive) | 45.3 | > 100 µM (inactive) | > 100 µM (inactive) | 51.5 µM (inactive) | 60.4 µM (inactive) | 62.4 µM (inactive)
5 | CCOC(=O)/C=C(\C(=O)OCC)n1cc(C)c(=O)n(Cc2cnnn2CCCCOC(C)=O)c1=O | 2.64 µM (inactive) | 18 µM (inactive) | 17.1 µM (inactive) | 1.91 µM (inactive) | 16.7 µM (inactive) | 12.4 µM (inactive) | 2.36 µM (inactive) | 5.98 µM (inactive) | 16.4 µM (inactive) | 22.2 µM (inactive) | 19.2 µM (inactive) | 12.7 µM (inactive) | 17.4 µM (inactive) | 2.06 µM (inactive) | 2.84 | 7.69 µM (inactive) | 24.5 µM (inactive) | 7.36 µM (inactive) | 13.3 µM (inactive) | 32.1 µM (inactive)
6 | c1ccc(-c2ccc(-c3cc4ccccc4[nH]3)cc2)cc1 | > 100 µM (inactive) | > 100 µM (inactive) | > 100 µM (inactive) | 27.8 µM (inactive) | > 100 µM (inactive) | > 100 µM (inactive) | > 100 µM (inactive) | > 100 µM (inactive) | > 100 µM (inactive) | > 100 µM (inactive) | > 100 µM (inactive) | > 100 µM (inactive) | > 100 µM (inactive) | > 100 µM (inactive) | > 100 | > 100 µM (inactive) | > 100 µM (inactive) | > 100 µM (inactive) | > 100 µM (inactive) | > 100 µM (inactive)
7 | O=C1OC[C@@H]2Cc3c([nH]c4ccccc34)[C@@H](c3ccc(O)cc3)N12 | 31.3 µM (inactive) | 17 µM (inactive) | 19.3 µM (inactive) | 45 µM (inactive) | 22.8 µM (inactive) | 28.7 µM (inactive) | 24.4 µM (inactive) | 34.9 µM (inactive) | 24 µM (inactive) | 29.6 µM (inactive) | 32.4 µM (inactive) | 24.8 µM (inactive) | 39.4 µM (inactive) | 23.7 µM (inactive) | 37.8 | 24.7 µM (inactive) | 26.8 µM (inactive) | 35.8 µM (inactive) | 17.4 µM (inactive) | 26.4 µM (inactive)
8 | CCOC(=O)/C(=C\c1ccc(F)cc1)C(C)=O | 26.5 µM (inactive) | 25.1 µM (inactive) | 21.2 µM (inactive) | 19.5 µM (inactive) | 24.3 µM (inactive) | 32.5 µM (inactive) | 34 µM (inactive) | 24.4 µM (inactive) | 17.1 µM (inactive) | 22.6 µM (inactive) | 28 µM (inactive) | 18.2 µM (inactive) | 58.6 µM (inactive) | 21.6 µM (inactive) | 20.7 | 30.1 µM (inactive) | 45.3 µM (inactive) | 21.8 µM (inactive) | 32.8 µM (inactive) | 29.5 µM (inactive)
9 | CCCCCCCCCCCCCCCC(=O)N(CCCCCCCCCCC(=O)O)CC(O)C(O)C(OC1OC(CO)C(O)C(O)C1O)C(O)CO (stereo not given) | 28.4 µM (inactive) | 38.9 µM (inactive) | 40.9 µM (inactive) | 22.6 µM (inactive) | 18.8 µM (inactive) | > 100 µM (inactive) | 21.3 µM (inactive) | 22.8 µM (inactive) | 37.8 µM (inactive) | > 100 µM (inactive) | 60.3 µM (inactive) | 60.8 µM (inactive) | > 100 µM (inactive) | > 100 µM (inactive) | 41.2 | 49.4 µM (inactive) | > 100 µM (inactive) | 29.2 µM (inactive) | > 100 µM (inactive) | 15.6 µM (inactive)
10 | O=C1c2cccnc2-c2nccc3ccnc1c23 | 0.413 µM (active) | 1.08 µM (active) | 0.281 µM (active) | 0.0248 µM (active) | 1.54 µM (inactive) | 0.0583 µM (active) | 1.5 µM (inactive) | 0.575 µM (active) | 1.36 µM (inactive) | 1.32 µM (inactive) | 1.91 µM (inactive) | 0.548 µM (active) | 2.07 µM (inactive) | 0.158 µM (active) | 0.366 | 0.219 µM (active) | 1.6 µM (inactive) | 0.195 µM (active) | 0.343 µM (active) | 1.29 µM (inactive)
11 | COc1ccc(CC2NC(=O)C(NC(=O)c3c4nc5c(C(=O)NC6C(=O)NC(Cc7ccc(OC)cc7)C(=O)N7CCCC7C(=O)N(C)CC(=O)N(C)C(C(C)C)C(=O)OC6C)ccc(C)c5oc-4c(C)c(=O)c3N)C(C)OC(=O)C(C(C)C)N(C)C(=O)CN(C)C(=O)C3CCCN3C2=O)cc1 (stereo not given) (I: TY(Me)P[Sar][NMeV] / II: TY(Me)P[Sar][NMeV]; ester I:1-I:C, II:1-II:C; linker I:N-II:N via Actinocin(1to9); configuration not given here) | < 0.001 µM (active) | 0.00109 µM (active) | 0.00147 µM (active) | < 0.001 µM (active) | < 0.001 µM (active) | < 0.001 µM (active) | < 0.001 µM (active) | < 0.001 µM (active) | < 0.001 µM (active) | 0.0371 µM (active) | 0.0485 µM (active) | < 0.001 µM (active) | 0.00267 µM (active) | < 0.001 µM (active) | 0.0579 | < 0.001 µM (active) | < 0.001 µM (active) | < 0.001 µM (active) | 0.0123 µM (active) | 0.01 µM (active)
